{"source": "patent EP4755393A1", "about": "“USE OF PROTON PUMP REGULATOR IN PREPARATION OF DRUG” (Shanghai Quietd Biotechnology Co., Ltd., priority 2023, dated 2025)", "key": {"[1]": {"test_system": "hippocampal CA1 pyramidal neurons", "experiment": "Whole-cell patch-clamp recording of spontaneous excitatory postsynaptic current (sEPSC) in hippocampal brain sections", "assay_type": "cell-based, C57 mouse", "conditions": "5 µM polypeptide applied for 5 min; clamp voltage -70 mV; FIGS. 8A-8C", "excerpt": "• Polypeptide QD202 was synthesized according to the amino acid sequence set forth in SEQ ID NO: 1. • Polypeptide QD202 N'-1 was synthesized according to the amino acid sequence set forth in SEQ ID NO: 2. • Polypeptide QD202 C'-1 was synthesized according to the amino acid sequence set forth in SEQ ID NO: 3. • Polypeptide QD202 C'-2 was synthesized according to the amino acid sequence set forth in SEQ ID NO: 4. • Polypeptide SS8 was synthesized according to the amino acid sequence set forth in SEQ ID NO: 54.\n0.1-0.15 ml of 20% ethyl carbamate was injected into the abdominal cavity of a C57 mouse of 2 to 3 months old for anesthesia; a head was quickly cut, and brain tissues were stripped and put into artificial cerebrospinal fluid (ACSF) ice-water mixed liquid into which mixed gas (95%O2 and 5%CO2) was introduced in advance, and stood for 2 min; the ACSF included the following components: […] of NaCl, […] of KCl, 0.12 mM of NaH2PO4, […] of CaCl2, 0.12 mM of MgCl2, 25 mM of NaHCO3 and 11 mM of glucose. A hippocampus coronal brain section of […] was cut by a vibration slicer. […] The recorded data were analyzed by Minianalysis software."}, "DIR protein": {"test_system": "DIR protein", "experiment": "Co-immunoprecipitation of QD202-Biotin peptide with Flag-His-DIR (HEK 293 lysate, western blot and dot blot)", "assay_type": "binding, human", "conditions": "QD202-Biotin peptide added to lysate of Flag-His-DIR transfected HEK 293; anti-Biotin IP; FIG. 14", "method": "The Flag-His-DIR expression plasmid was transfected into HEK 293, and cell proteins were extracted 48 h after transfection. Table 2: Plasmid sequences\nProtein extraction was performed using Pierce RIPA lysis buffer, 1000 µL of Pierce RIPA lysis buffer containing protease inhibitors was added. Cells were collected and transferred to a clean 1.5 mL EP tube using a cell scraper. After mixing for 1 h on a rotary mixer at 4°C, the cells were centrifuged at 13,000 rpm at 4°C for 10 min to remove cell debris. The supernatant of the cell lysate was divided into two aliquots, each 500 µL, and 10 µL of QD202-Biotin peptide at a concentration of 1 mM was added to one aliquot. From each of the two aliquots, 30 µL of the supernatant was taken and mixed with 10 µL of 4× loading buffer. The mixture was boiled at 100°C for 5 min and then stored frozen at -20°C. For the remaining 470 µL of protein lysate, 2 µL of the antibody (Anti-Biotin, Vector, sp-3000) was added; the mixture was incubated overnight (about 16-18 h) on a rotary shaker at 4°C. 30 µL of Protein G Sepharose beads (Roche, 11243233001) were placed in an EP tube and washed three times with Pierce RIPA lysis buffer. […] The protein was detected by Western blot and dot blot methods (DYKDDDDK-Tag (3B9) mAb, Abmart, M20008; Anti-Biotin, Vector, sp-3000)."}}, "note": "Ends that are not written are not given here.", "data": [{"substance": "QD202: Polypeptide synthesized according to the amino acid sequence set forth in SEQ ID NO: 1; ATP6V1B2 regulator / DIR regulator (YGRKKRRQRRRSPVDVVCS; not fully specified)", "values": [{"measurement": "excitatory postsynaptic current amplitude", "setting": "[1]", "result": "no influence"}, {"measurement": "release frequency of excitatory postsynaptic current", "setting": "[1]", "result": "increasing"}, {"measurement": "binding to the DIR protein (co-immunoprecipitation)", "setting": "DIR protein", "result": "can bind"}]}]}
